What all share (assay): NCI tumour cell line growth inhibition, 48 h
The test system of assay [1] is NCI-H23.
In assay [2] the test system is MOLT-4.
The test system of assay [3] is EKVX.
The subject of assay [4] is RPMI-8226.
The test system of assay [5] is HOP-92.
Assay [6] deals with OVCAR-8.
In assay [7] the test system is K562.
Assay [8] has as its system OVCAR-3.
The test system of assay [9] is SF-539.
Assay [10] deals with A549.
Assay [11] concerns HT-29.
The subject of assay [12] is HCT-15.
The subject of assay [13] is HOP-62.
Assay [14] deals with UO-31.
Assay [15] concerns SNB-75.
Assay [16] deals with LOX IMVI.
The subject of assay [17] is CCRF-CEM.
Assay [18] concerns SNB-19.
The subject of assay [19] is U-251.
Assay [20] concerns HCT-116.

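Results reflect a 48-hour exposure of cells in 96-well plates to compound at five concentrations. GI50: concentration for 50% inhibition of growth.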 Active and inactive are the calls of the source. Cut-off read from the data, not from the text of the source: active = GI50 up to about 1.1 µM and inactive = higher. Bounds are passed on as bounds.

`CSC1=C(C)C(/C=N/Nc2ccc([N+](=O)[O-])cc2)=C(C)N(c2ccccc2)S1(=O)=O`: the GI50 is 5.93 µM (inactive) in assay [1]; 5.27 µM (inactive) in [2]; 33.9 µM (inactive) in assay [3]; 5.07 µM (inactive) in [4]; > 100 µM (inactive) in assay [5]; 17.3 µM (inactive) in assay [6]. The GI50 in assay [7] was 7.71 µM (inactive); in assay [8], 25.4 µM (inactive); in [9], > 100 µM (inactive); in assay [10], 36.3 µM (inactive); in assay [11], 28.5 µM (inactive); in [12], 68.9 µM. Further, the GI50 is > 100 µM (inactive) in [13]; 29.3 µM (inactive) in [14]; 38.5 µM (inactive) in [15]; 19.6 µM (inactive) in assay [16]; > 100 µM (inactive) in [17]; > 100 µM (inactive) in assay [18]. Besides, the GI50 in assay [19] was > 100 µM (inactive); in assay [20], 6.47 µM (inactive).
With `CCC1(c2ccccc2)C(=O)N=C(c2ccccc2)N1CCc1ccccc1` (stereo not given), the GI50 in assay [1], in assay [2], in assay [3], in assay [4], in assay [5] and in assay [6] was > 100 µM (inactive) each time. The GI50 is > 100 µM (inactive) in [7]; > 100 µM (inactive) in assay [8]; > 100 µM (inactive) in [9]; > 100 µM (inactive) in [10]; > 100 µM (inactive) in assay [11]; greater than 100 µM in assay [12]. The GI50 in [13], in assay [14], in [15], in [16], in assay [17] and in [18] was > 100 µM (inactive) throughout. For the same compound, the GI50 in [19] and in assay [20] was > 100 µM (inactive) each time.
Turning to `CCOC(=O)C(NC(=O)Nc1ccccc1)(Nc1cccc(Cl)c1)C(F)(F)F` (stereo not given), the GI50 in [1] is > 100 µM (inactive); in assay [2] it was 98.9 µM (inactive); in assay [3], > 100 µM (inactive); in [4] it was > 100 µM (inactive); in [5], 39.8 µM (inactive); in [6], > 100 µM (inactive). Moreover, the GI50 was > 100 µM (inactive) in [7]; > 100 µM (inactive) in assay [8]; > 100 µM (inactive) in [9]; > 100 µM (inactive) in assay [10]; > 100 µM (inactive) in assay [11]; greater than 100 µM in assay [12]. Moreover, the GI50 in assay [13] was > 100 µM (inactive); in [14], > 100 µM (inactive); in [15], 46.7 µM (inactive); in assay [16] it was > 100 µM (inactive); in [17], 45.1 µM (inactive); in assay [18], > 100 µM (inactive). Besides, the GI50 in assay [19] and in assay [20] was > 100 µM (inactive) each time.
With `C=C1C(=O)OC2C1CC1OC2C(C)CCC/C(C)=C\CCC1(C)O` (stereo not given), the GI50 in [1] was 9.25 µM (inactive); in [2] it was 8.15 µM (inactive); in assay [3] it was 20.4 µM (inactive); in [4], 7.6 µM (inactive); in assay [5], 10.7 µM (inactive); in assay [6], 9.46 µM (inactive). Further, the GI50 is 12.7 µM (inactive) in assay [7]; 9.75 µM (inactive) in assay [8]; 16.5 µM (inactive) in assay [9]; 29.7 µM (inactive) in assay [10]; 30.3 µM (inactive) in [11]; 18.2 µM in [12]. For the same compound, the GI50 was 32.2 µM (inactive) in assay [13]; 32.3 µM (inactive) in assay [14]; 15.3 µM (inactive) in assay [15]; 6.55 µM (inactive) in assay [16]; 6.82 µM (inactive) in assay [17]; 49.1 µM (inactive) in assay [18]. The GI50 in assay [19] is 41.3 µM (inactive); in [20], 13.5 µM (inactive).
For `O=[N+]([O-])c1cc(Cl)cc2cc(Cl)cnc12`, the GI50 in assay [1] is > 100 µM (inactive); in [2], > 100 µM (inactive); in assay [3], 83.2 µM (inactive); in [4] it was > 100 µM (inactive); in assay [5], > 100 µM (inactive); in assay [6], 98.9 µM (inactive). The GI50 in [7] is > 100 µM (inactive); in assay [8] it was > 100 µM (inactive); in assay [9], > 100 µM (inactive); in assay [10], > 100 µM (inactive); in assay [11], > 100 µM (inactive); in [12] it was greater than 100 µM. In addition, the GI50 in [13] was > 100 µM (inactive); in [14], > 100 µM (inactive); in assay [15] it was 15.6 µM (inactive); in assay [16], > 100 µM (inactive); in assay [17] it was > 100 µM (inactive); in assay [18], > 100 µM (inactive). Besides, the GI50 in assay [19] was > 100 µM (inactive); in assay [20] it was 95.1 µM (inactive).
Turning to `CC12Nc3ccccc3C1=C(c1ccccc1)CC1C(=O)OC(=O)C12` (stereo not given), the GI50 in assay [1], in assay [2], in assay [3], in [4], in [5] and in assay [6] was > 100 µM (inactive) in each case. Moreover, the GI50 is > 100 µM (inactive) in [7]; > 100 µM (inactive) in assay [8]; > 100 µM (inactive) in assay [9]; > 100 µM (inactive) in assay [10]; > 100 µM (inactive) in assay [11]; greater than 100 µM in assay [12]. Besides, the GI50 is > 100 µM (inactive) in assay [13]; > 100 µM (inactive) in assay [14]; 1.86 µM (inactive) in assay [15]; > 100 µM (inactive) in assay [16]; > 100 µM (inactive) in [17]; > 100 µM (inactive) in [18]. The GI50 in assay [19] and in assay [20] was > 100 µM (inactive) throughout.
For the compound `COc1cc(C2c3cc4c(cc3[C@@H](Nc3cnc5ccccc5c3)C3COC(=O)[C@H]23)OCO4)cc(OC)c1O` (stereo not given in full), the GI50 in assay [1] is 0.311 µM (active); in assay [2] it was < 0.01 µM (active); in assay [3] it was 1.27 µM (inactive); in [4] it was 0.159 µM (active); in [5] it was 0.381 µM (active); in [6], 0.346 µM (active). Also, the GI50 is 0.649 µM (active) in [7]; 1.65 µM (inactive) in [8]; 0.168 µM (active) in assay [9]; < 0.01 µM (active) in [10]; 0.634 µM (active) in assay [11]; 0.148 µM in [12]. For the same compound, the GI50 was 0.128 µM (active) in [13]; 0.275 µM (active) in assay [14]; 0.478 µM (active) in assay [15]; 0.37 µM (active) in assay [16]; 0.043 µM (active) in [17]; 0.221 µM (active) in assay [18]. For the same compound, the values for the GI50 in assay [19] and in assay [20] were 0.238 µM (active) and 0.46 µM (active), respectively.
Consider `COC1=CC(=O)C=C(OC)C1=O` [2,6-DIMETHOXYQUINONE], for which the GI50 in assay [1] is 7.66 µM (inactive); in assay [2], 1.49 µM (inactive); in assay [3], 5.69 µM (inactive); in [4] it was 6 µM (inactive); in assay [5], 4.16 µM (inactive); in [6], 8.93 µM (inactive). Further, the GI50 was 7.1 µM (inactive) in [7]; 4.78 µM (inactive) in assay [8]; 16.8 µM (inactive) in [9]; 57.1 µM (inactive) in [10]; 27.4 µM (inactive) in assay [11]; 31.6 µM in assay [12]. The GI50 in assay [13] was 25.3 µM (inactive); in assay [14] it was 23.6 µM (inactive); in [15] it was 27.9 µM (inactive); in assay [16], 5.14 µM (inactive); in assay [17] it was 1.38 µM (inactive); in assay [18], 13.6 µM (inactive). Besides, the GI50 in assay [19] was 31.6 µM (inactive); in assay [20] it was 6.49 µM (inactive).
